Results on 24 compounds are retold here after patent US10266497B2 (ABIDE THERAPEUTICS, INC., priority 2017, dated 2019).

For test [1], the target named is T1, MAGL (Homo sapiens, UniProt Q99685).
T1 sequence (Q99685 1-303): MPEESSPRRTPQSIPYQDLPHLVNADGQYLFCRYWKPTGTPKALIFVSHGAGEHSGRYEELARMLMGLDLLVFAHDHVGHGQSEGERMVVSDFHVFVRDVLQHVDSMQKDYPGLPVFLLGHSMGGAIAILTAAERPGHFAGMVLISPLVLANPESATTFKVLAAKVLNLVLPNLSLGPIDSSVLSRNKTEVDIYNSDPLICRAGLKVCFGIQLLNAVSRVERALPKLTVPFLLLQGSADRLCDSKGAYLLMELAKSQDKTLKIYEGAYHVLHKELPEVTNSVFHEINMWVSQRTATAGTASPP
The test is described as follows: In vitro competitive activity-based protein profiling, MAGL, human. The conditions noted are these: for inhibition at 1 µM: read-out: MAGL % inh. 1 μM (human); for inhibition at 10 µM: read-out: MAGL % inh. (human) at 10 uM.

Test [2] has as its target T2, MAGL (Mus musculus, UniProt O35678).
T2 sequence (O35678 1-303): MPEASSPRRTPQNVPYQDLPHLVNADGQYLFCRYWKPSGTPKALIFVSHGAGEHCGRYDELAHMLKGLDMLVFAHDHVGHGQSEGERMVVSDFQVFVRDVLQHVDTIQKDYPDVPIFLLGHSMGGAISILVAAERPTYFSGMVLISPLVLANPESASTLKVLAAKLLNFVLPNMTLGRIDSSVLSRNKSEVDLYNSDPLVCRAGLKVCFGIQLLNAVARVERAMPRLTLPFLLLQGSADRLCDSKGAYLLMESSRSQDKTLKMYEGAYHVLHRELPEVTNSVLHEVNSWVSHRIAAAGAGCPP
The test is described as follows: In vitro competitive activity-based protein profiling, MAGL, mouse. As to conditions: read-out: MAGL % inh. 1 μM (mouse).

Each structure is given as a SMILES string. Bounds are passed on as bounds.

Regarding `CN(Cc1cccc(-c2ccccc2)c1)[C@H]1C[C@@H]2CN(C(=O)n3ccc(C(=O)O)n3)C[C@@H]2C1` [Example 298, 1-(trans-5-(([1,1′-biphenyl]-3-ylmethyl)(methyl)amino)octahydrocyc-lopenta[c]pyrrole-2-carbonyl)-1H-pyrazole-3-carboxylic acid], the inhibition at 1 µM at MAGL [1] and at MAGL [2] was > 75% in each case.

On to `O=C(O)c1ccn(C(=O)N2CCC3(CCN(Cc4cc(Cl)ccc4N4CCC4)C3)CC2)n1` [Example 317, 1-(2-(2-(azetidin-1-yl)-5-chlorobenzyl)-2,8-diazaspiro[4.5]decane-8-carbonyl)-1H-pyrazole-3-carboxylic acid], for which the inhibition at 1 µM at MAGL [1] and on MAGL [2] was > 75% in each case.

On to `C[C@H]1CN(Cc2cc(F)cc(Oc3ccccc3Cl)c2)CCN1C(=O)n1ccc(C(=O)O)n1` [Example 349, (S)-1-(4-(3-(2-chlorophenoxy)-5-fluorobenzyl)-2-methylpiperazine-1-carbonyl)-1H-pyrazole-3-carboxylic acid], for which the inhibition at 1 µM at MAGL [1] and at MAGL [2] was > 75% in each case.

Turning to `CC(C)c1ccccc1O[C@H]1C[C@@H]2CN(C(=O)n3ccc(C(=O)O)n3)C[C@@H]2C1` [Example 221, 1-(trans-5-(2-isopropylphenoxy)octahydrocyclopenta [c]pyrrole-2-carbonyl)-1H-pyrazole-3-carboxylic acid], the inhibition at 1 µM on MAGL [1] and on MAGL [2] was > 75% in each case.

For `Cc1cc(O[C@H]2C[C@@H]3CN(C(=O)n4ccc(C(=O)O)n4)C[C@@H]3C2)ccc1C(F)(F)F` [Example 254, 1-(trans-5-(3-methyl-4-(trifluoromethyl)phenoxy)octahydro-cyclopenta[c]pyrrole-2-carbonyl)-1H-pyrazole-3-carboxylic acid], the inhibition at 1 µM on MAGL [1] and at MAGL [2] was > 75% in each case.

As for `COc1cc(-c2ccccc2)ccc1CN1CCN(C(=O)n2ccc(C(=O)O)n2)[C@H](C)C1` [Example 283, (R)-1-(4-((3-methoxy-[1,1′-biphenyl]-4-yl)methyl)-2-methylpiperazine-1-carbonyl)-1H-pyrazole-3-carboxylic acid], the inhibition at 1 µM on MAGL [1] and at MAGL [2] was > 75% each time.

Regarding `O=C(O)c1ccn(C(=O)N2CCN(Cc3ccc(Cl)c(-c4nccs4)c3)CC2)n1` [Example 274, 1-(4-(4-chloro-3-(thiazol-2-yl)benzyl)piperazine-1-carbonyl)-1H-pyrazole-3-carboxylic acid], the inhibition at 1 µM on MAGL [1] and at MAGL [2] was > 75% each time.

On to `O=C(O)c1ccn(C(=O)N2CCC3(CCN(Cc4cccc(Cl)c4)C3)CC2)n1` [Example 227, 1-(2-(3-chlorobenzyl)-2,8-diazaspiro[4.5]decane-8-carbonyl)-1H-pyrazole-3-carboxylic acid], for which the values for the inhibition at 1 µM at MAGL [1] and on MAGL [2] were > 75% and 25 to 50%, respectively.

As for `O=C(O)c1ccn(C(=O)N2CCN(Cc3ccc(C(F)(F)F)cc3N3CC[C@@H](O)C3)CC2)n1` [Example 333, (R)-1-(4-(2-(3-hydroxypyrrolidin-1-yl)-4-(trifluoromethyl)benzyl)piperazine-1-carbonyl)-1H-pyrazole-3-carboxylic acid], the inhibition at 1 µM on MAGL [1] and at MAGL [2] was > 75% throughout.

In the case of `O=C(O)c1ccn(C(=O)N2CCC3(CCCN3Cc3ccc(C(F)(F)F)cc3N3CC4CCC(C3)O4)CC2)n1` [Example 416, 1-(1-(2-(8-oxa-3-azabicyclo[3.2.1]octan-3-yl)-4-(trifluoromethyl)benzyl)-1,8-diazaspiro[4.5]decane-8-carbonyl)-1H-pyrazole-3-carboxylic acid], the inhibition at 1 µM on MAGL [1] and on MAGL [2] was > 75% in each case.

For `Cc1cn(C(=O)N2C[C@H]3C[C@H](OCc4cccc(C(F)(F)F)c4)C[C@H]3C2)nc1C(=O)O` [Example 290, 4-methyl-1-(trans-5-((3-(trifluoromethyl)benzyl)oxy)octa-hydrocyclopenta[c]pyrrole-2-carbonyl)-1H-pyrazole-3-carboxylic acid], the inhibition at 1 µM at MAGL [1] and on MAGL [2] was > 75% throughout.

Regarding `O=C(O)c1ccn(C(=O)N2C[C@H]3C[C@H](Oc4ccccc4-c4cccnc4)C[C@H]3C2)n1` [Example 244, 1-(trans-5-(2-(pyridin-3-yl)phenoxy)octa-hydrocyclopenta[c]pyrrole-2-carbonyl)-1H-pyrazole-3-carboxylic acid], the inhibition at 1 µM on MAGL [1] and on MAGL [2] was > 75% each time.

For `O=C(O)c1nn(C(=O)N2C[C@H]3C[C@H](OCc4cccc(C(F)(F)F)c4)C[C@H]3C2)cc1Cl` [Example 314, 4-chloro-1-(trans-5-((3-(trifluoromethyl)benzyl)oxy)octa-hydrocyclopenta[c]pyrrole-2-carbonyl)-1H-pyrazole-3-carboxylic acid], the inhibition at 1 µM on MAGL [1] and at MAGL [2] was > 75% in each case.

In the case of `O=C(O)c1ccn(C(=O)N2CCC3(CCN(Cc4cccc(-c5ccccn5)c4)C3)CC2)n1` [Example 301, 1-(2-(3-(pyridin-2-yl)benzyl)-2,8-diazaspiro[4.5]decane-8-carbonyl)-1H-pyrazole-3-carboxylic acid], the inhibition at 10 µM at MAGL [1] was > 75%. Moreover, the inhibition at 1 µM at MAGL [2] fell in the range of 0 to 25%.

On to `O=C(O)c1ccn(C(=O)N2CCN(Cc3ccc(C(F)(F)F)cc3N3CC4CCC(C3)O4)CC2)n1` [Example 380, 1-(4-(2-(8-oxa-3-azabicylco[3.2.1]octan-3-yl)-4-(trifluoromethyl)benzyl)piperazine-1-carbonyl)-1H-pyrazole-3-carboxylic acid], for which the inhibition at 1 µM on MAGL [1] and on MAGL [2] was > 75% throughout.

On to `O=C(O)c1ccn(C(=O)N2CCC(OCc3cc(Cl)cc(Cl)c3)CC2)n1` [Example 224, 1-(4-((3,5-dichlorobenzyl)oxy)piperidine-1-carbonyl)-1H-pyrazole-3-carboxylic acid], for which the inhibition at 1 µM at MAGL [1] and at MAGL [2] was > 75% in each case.

For `O=C(O)c1ccn(C(=O)N2CCC3(CCN(Cc4cccc(Cl)c4Cl)C3)CC2)n1` [Example 286, 1-(2-(2,3-dichlorobenzyl)-2,8-diazaspiro[4.5]decane-8-carbonyl)-1H-pyrazole-3-carboxylic acid], the inhibition at 1 µM on MAGL [1] and at MAGL [2] was > 75% throughout.

Regarding `NC(=O)c1ccc(Cl)cc1CN1CCC2(CCN(C(=O)n3ccc(C(=O)O)n3)CC2)C1` [Example 300, 1-(2-(2-carbamoyl-5-chlorobenzyl)-2,8-diazaspiro[4.5]decane-8-carbonyl)-1H-pyrazole-3-carboxylic acid], the inhibition at 10 µM on MAGL [1] is > 75%. Besides, the inhibition at 1 µM at MAGL [2] fell in the range of 0 to 25%.

Turning to `O=C(O)c1ccn(C(=O)N2CCC3(CCN(Cc4ccc(N5CC6COCC6C5)cc4Cl)C3)CC2)n1` (stereo not drawn) [Example 400, 1-(2-(2-chloro-4-(tetrahydro-1H-furo[3,4-c]pyrrol-5(3H)-yl)benzyl)-2,8-diazaspiro[4.5]decane-8-carbonyl)-1H-pyrazole-3-carboxylic acid], the inhibition at 10 µM at MAGL [1] is > 75%. Also, on MAGL [2], the inhibition at 1 µM was in the range of 0 to 25%.

On to `O=C(O)c1ccn(C(=O)N2CCC3(CCN(Cc4ccc(Cl)c(N5CCCC5)c4)C3)CC2)n1` [Example 343, 1-(2-(4-chloro-3-(pyrrolidin-1-yl)benzyl)-2,8-diazaspiro[4.5]decane-8-carbonyl)-1H-pyrazole-3-carboxylic acid], for which the figures for the inhibition at 1 µM at MAGL [1] and on MAGL [2] were 25 to 50% and 0 to 25%, respectively.

As for `O=C(O)c1ccn(C(=O)N2CCC3(CCN(Cc4cccc(Oc5cncnc5)c4)C3)CC2)n1` [Example 31, 1-(2-(3-(Pyrimidin-5-yloxy)benzyl)-2,8-diazaspiro[4.5]decane-8-carbonyl)-1H-pyrazole-3-carboxylic Acid], the figures for the inhibition at 1 µM on MAGL [1] and on MAGL [2] were 0 to 25% and 50 to 75%, respectively.

As to `O=C(O)c1nn(C(=O)N2CCN(Cc3cccc(-c4cncnc4)c3)CC2)cc1Cl` [Example 270, 4-chloro-1-(4-(3-(pyrimidin-5-yl)benzyl)piperazine-1-carbonyl)-1H-pyrazole-3-carboxylic acid], the inhibition at 1 µM on MAGL [1] and at MAGL [2] was > 75% each time.

As for `O=C(O)c1ccn(C(=O)N2C[C@H]3C[C@H](OCc4ccc(Cl)c(-c5nccs5)c4)C[C@H]3C2)n1` [Example 345, 1-(trans-5-((4-chloro-3-(thiazol-2-yl)benzyl)oxy)octa-hydrocyclopenta[c]pyrrole-2-carbonyl)-1H-pyrazole-3-carboxylic acid], the inhibition at 1 µM on MAGL [1] and at MAGL [2] was > 75% in each case.

In the case of `O=C(O)c1ccn(C(=O)N2CCN(Cc3cc(F)cc(Oc4ccccc4Cl)c3)CC2)n1` [Example 319, 1-(4-(3-(2-chlorophenoxy)-5-fluorobenzyl)piper-azine-1-carbonyl)-1H-pyrazole-3-carboxylic acid], the inhibition at 1 µM at MAGL [1] and at MAGL [2] was > 75% throughout.
